Experimental findings from patent publication US20070049593A1 (priority 2004, published 2007) are described below.

By pIC50 is commonly meant the negative decadic logarithm of the IC50, by convention in mol/L.

pIC50: −log10 of the molar value. Counter-ions that a name gives are not always drawn. Like-named read-outs stand apart in the source and are kept apart here. A value given as a limit tells only on which side of the number the result lay.

This experiment addresses T1, HCV polymerase (Hepatitis C virus genotype 1b, UniProt P26663).
T1 construct: a region encoding NS5B (J Virol 1991 March, 65(3), 1105-13, 544 amino acids after deletion of 47 amino acids on the C-terminal); 6xHis (C); made in house; host or cells: Escherichia coli
As to the kind of experiment: biochemical. Also on record: species or system HCV BK strain. A digest of the protocol:
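His-tagged NS5B (BK strain, 47-aa C-terminal deletion, E. coli-expressed) at 0.5 μg/ml copied 5 μg/ml run-off RNA bearing the HCV 3′ UTR with 2 μM UTP plus [3H]UTP, 50 μM ATP/GTP, in pH 7.5 Tris with 5 mM MgCl2, 25 °C, 90 min. TCA-precipitated RNA was counted and IC50 calculated.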

T1 sequence (P26663 2420-2963): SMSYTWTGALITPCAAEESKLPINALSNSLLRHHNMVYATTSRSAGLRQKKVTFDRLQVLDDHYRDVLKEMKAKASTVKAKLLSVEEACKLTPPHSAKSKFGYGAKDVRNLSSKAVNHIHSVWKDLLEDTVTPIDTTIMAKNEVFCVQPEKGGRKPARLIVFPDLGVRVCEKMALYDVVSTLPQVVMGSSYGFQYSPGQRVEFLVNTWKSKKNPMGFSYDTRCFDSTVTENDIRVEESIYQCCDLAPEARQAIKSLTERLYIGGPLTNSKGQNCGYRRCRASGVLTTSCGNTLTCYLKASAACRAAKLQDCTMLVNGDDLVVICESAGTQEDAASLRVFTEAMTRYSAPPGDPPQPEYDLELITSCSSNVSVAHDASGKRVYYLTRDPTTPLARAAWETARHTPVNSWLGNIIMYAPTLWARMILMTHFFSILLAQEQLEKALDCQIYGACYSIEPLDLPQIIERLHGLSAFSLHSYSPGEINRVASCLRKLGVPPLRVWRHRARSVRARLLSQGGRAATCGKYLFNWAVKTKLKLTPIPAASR

`O=C(O)c1ccc2c(C3CCCCC3)c3n(c2c1)CCN(CC(=O)N1CCCCCC1)c1ccccc1-3` [Example 1-78, 5-[2-(azepan-1-yl)-2-oxoethyl]-13-cyclohexyl-6,7-dihydro-5H-benzo[5,6][1,4]diazepino[7,1-a]indole-10-carboxylic acid monohydrochloride] gave a pIC50 of more than 7.00.
`O=C(O)c1ccc2c(C3CCCCC3)c3n(c2c1)CCN(CCN1CCOCC1)c1cc(Cl)ccc1-3` [Example 1-79, 3-chloro-13-cyclohexyl-5-[2-(morpholin-4-yl)ethyl]-6,7-dihydro-5H-benzo[5,6][1,4]diazepino[7,1-a]indole-10-carboxylic acid dihydrochloride]: where the note is “25° C., 90 min, [5,6-3H]UTP incorporation into RNA, read-out: HCV polymerase inhibitory activity IC50”, the negative logarithm of the IC50 (pIC50) was more than 7.00.
Take `O=C(O)c1ccc2c(C3CCCCC3)c3n(c2c1)CCN(CCCCN1CCOCC1)c1ccccc1-3` [Example 1-80, 13-cyclohexyl-5-[4-(morpholin-4-yl)butyl]-6,7-dihydro-5H-benzo[5,6][1,4]diazepino[7,1-a]indole-10-carboxylic acid dihydrochloride]: the pIC50 is more than 7.00.
On to `O=C(O)c1ccc2c(C3CCCCC3)c3n(c2c1)CCN(CC(=O)N1CCN(c2ccccc2)CC1)c1ccccc1-3` [Example 1-81, 13-cyclohexyl-5-[2-oxo-2-(4-phenylpiperazin-1-yl)ethyl]-6,7-dihydro-5H-benzo[5,6][1,4]diazepino[7,1-a]indole-10-carboxylic acid dihydrochloride], for which the negative-log IC50 (pIC50) is more than 7.00.
As for `O=C(O)c1ccc2c(C3CCCCC3)c3n(c2c1)CCN(CCN1CCN(c2ccccc2)CC1)c1ccccc1-3` [Example 1-82, 13-cyclohexyl-5-[2-(4-phenylpiperazin-1-yl)ethyl]-6,7-dihydro-5H-benzo[5,6][1,4]diazepino[7,1-a]indole-10-carboxylic acid trihydrochloride], the negative logarithm of the IC50 (pIC50) was more than 7.00.
`O=C(O)c1ccc2c(C3CCCCC3)c3n(c2c1)CCN(CCN1CCCCCC1)c1ccccc1-3` [Example 1-83, 5-[2-(azepan-1-yl)ethyl]-13-cyclohexyl-6,7-dihydro-5H-benzo[5,6][1,4]diazepino[7,1-a]indole-10-carboxylic acid dihydrochloride] showed a negative logarithm of the IC50 (pIC50) of more than 7.00.
In turn, `CCN1CCN(C(=O)CN2CCn3c(c(C4CCCCC4)c4ccc(C(=O)NC)cc43)-c3ccccc32)CC1` [Example 1-84, 13-cyclohexyl-5-[2-(4-ethylpiperazin-1-yl)-2-oxoethyl]-N-methyl-6,7-dihydro-5H-benzo[5,6][1,4]diazepino[7,1-a]indole-10-carboxamide] showed a negative logarithm of the IC50 (pIC50) of more than 7.00.
Same read-out and setting: the result for `CCN1CCN(C(=O)CN2CCn3c(c(C4CCCCC4)c4ccc(C(=O)NCCO)cc43)-c3ccccc32)CC1` [Example 1-85, 13-cyclohexyl-5-[2-(4-ethylpiperazin-1-yl)-2-oxoethyl]-N-(2-hydroxyethyl)-6,7-dihydro-5H-benzo[5,6][1,4]diazepino[7,1-a]indole-10-carboxamide] reads more than 7.00; that for `CCN1CCN(C(=O)CN2CCn3c(c(C4CCCCC4)c4ccc(C(=O)NC(C)(C)CO)cc43)-c3ccccc32)CC1` [Example 1-86, 13-cyclohexyl-5-[2-(4-ethylpiperazin-1-yl)-2-oxoethyl]-N-(2-hydroxy-1,1-dimethylethyl)-6,7-dihydro-5H-benzo[5,6][1,4]diazepino[7,1-a]indole-10-carboxamide], 6.00 to 7.00; that for `CN(C)C(=O)N1CCN(CCN2CCn3c(c(C4CCCCC4)c4ccc(C(=O)O)cc43)-c3ccccc32)CC1` [Example 1-87, 13-cyclohexyl-5-[2-(4-dimethylcarbamoylpiperazin-1-yl)ethyl]-6,7-dihydro-5H-benzo[5,6][1,4]diazepino[7,1-a]indole-10-carboxylic acid dihydrochloride], more than 7.00.
Still for that read-out and setting: the value for `O=C(O)c1ccc2c(C3CCCCC3)c3n(c2c1)CCN(CCN1CCN(C(=O)c2ccccc2)CC1)c1ccccc1-3` [Example 1-88, 5-[2-(4-benzoylpiperazin-1-yl)ethyl]-13-cyclohexyl-6,7-dihydro-5H-benzo[5,6][1,4]diazepino[7,1-a]indole-10-carboxylic acid dihydrochloride] was more than 7.00; that for `CC(C)(C)OC(=O)N1CCC(CCN2CCn3c(c(C4CCCCC4)c4ccc(C(=O)O)cc43)-c3ccccc32)CC1` [Example 1-89, 5-[2-(1-tert-butoxycarbonylpiperidin-4-yl)ethyl]-13-cyclohexyl-6,7-dihydro-5H-benzo[5,6][1,4]diazepino[7,1-a]indole-10-carboxylic acid] was more than 7.00; that for `O=C(O)c1ccc2c(C3CCCCC3)c3n(c2c1)CCN(CCN1CCCC1=O)c1ccccc1-3` [Example 1-90, 13-cyclohexyl-5-[2-(2-oxopyrrolidin-1-yl)ethyl]-6,7-dihydro-5H-benzo[5,6][1,4]diazepino[7,1-a]indole-10-carboxylic acid monohydrochloride] was more than 7.00.
Regarding `CS(=O)(=O)N1CCN(CCN2CCn3c(c(C4CCCCC4)c4ccc(C(=O)O)cc43)-c3ccccc32)CC1` [Example 1-91, 13-cyclohexyl-5-[2-(4-methanesulfonylpiperazin-1-yl)ethyl]-6,7-dihydro-5H-benzo[5,6][1,4]diazepino[7,1-a]indole-10-carboxylic acid dihydrochloride], the negative-log IC50 (pIC50) was more than 7.00.
Still for that read-out and setting: the value for `CC(=O)N1CCC(CCN2CCn3c(c(C4CCCCC4)c4ccc(C(=O)O)cc43)-c3ccccc32)CC1` [Example 1-92, 5-[2-(1-acetylpiperidin-4-yl)ethyl]-13-cyclohexyl-6,7-dihydro-5H-benzo[5,6][1,4]diazepino[7,1-a]indole-10-carboxylic acid monohydrochloride] was more than 7.00.
In turn, `CCN1CCC(CCN2CCn3c(c(C4CCCCC4)c4ccc(C(=O)O)cc43)-c3ccccc32)CC1` [Example 1-93, 13-cyclohexyl-5-[2-(1-ethylpiperidin-4-yl)ethyl]-6,7-dihydro-5H-benzo[5,6][1,4]diazepino[7,1-a]indole-10-carboxylic acid dihydrochloride] showed a pIC50 of more than 7.00.
For `CS(=O)(=O)N1CCC(CCN2CCn3c(c(C4CCCCC4)c4ccc(C(=O)O)cc43)-c3ccccc32)CC1` [Example 1-94, 13-cyclohexyl-5-[2-(1-methanesulfonylpiperidin-4-yl)ethyl]-6,7-dihydro-5H-benzo[5,6][1,4]diazepino[7,1-a]indole-10-carboxylic acid monohydrochloride], the pIC50 was more than 7.00.
The same measure, in the same setting: the result for `CC(C)(C)OC(=O)N1CCN(CCN2CCn3c(c(C4CCCCC4)c4ccc(C(=O)O)cc43)-c3ccccc32)CC1` [Example 1-95, 5-[2-(4-tert-butoxycarbonylpiperazin-1-yl)ethyl]-13-cyclohexyl-6,7-dihydro-5H-benzo[5,6][1,4]diazepino[7,1-a]indole-10-carboxylic acid dihydrochloride] reads more than 7.00.
As for `CCN1CCN(C(=O)CN2CCn3c(c(C4CCCCC4)c4ccc(-c5nn[nH]n5)cc43)-c3ccccc32)CC1` [Example 1-96, 2-[13-cyclohexyl-10-(2H-tetrazol-5-yl)-6,7-dihydrobenzo[5,6][1,4]diazepino[7,1-a]indol-5-yl]-1-(4-ethylpiperazin-1-yl)ethanone], the negative logarithm of the IC50 (pIC50) is more than 7.00.
Same read-out and setting: the result for `CCOC(=O)N1CCN(CCN2CCn3c(c(C4CCCCC4)c4ccc(C(=O)O)cc43)-c3ccccc32)CC1` [Example 1-97, 13-cyclohexyl-5-[2-(4-ethoxycarbonylpiperazin-1-yl)ethyl]-6,7-dihydro-5H-benzo[5,6][1,4]diazepino[7,1-a]indole-10-carboxylic acid dihydrochloride] reads more than 7.00; that for `CC(=O)N1CCN(CCN2CCn3c(c(C4CCCCC4)c4ccc(C(=O)O)cc43)-c3ccccc32)CC1` [Example 1-98, 5-[2-(4-acetylpiperazin-1-yl)ethyl]-13-cyclohexyl-6,7-dihydro-5H-benzo[5,6][1,4]diazepino[7,1-a]indole-10-carboxylic acid dihydrochloride], more than 7.00.
`CN(C)CCN1CCn2c(c(C3CCCCC3)c3ccc(C(=O)O)cc32)-c2ccccc21` [Example 1-99, 13-cyclohexyl-5-(2-dimethylaminoethyl)-6,7-dihydro-5H-benzo[5,6][1,4]diazepino[7,1-a]indole-10-carboxylic acid dihydrochloride]: the pIC50 is more than 7.00.
In the case of `O=C(O)c1ccc2c(C3CCCCC3)c3n(c2c1)CCNc1cc(OCc2cc(N4CCCC4=O)ccc2N2CCOCC2)ccc1-3` [Example 1-100, 13-cyclohexyl-3-[2-(morpholin-4-yl)-5-(2-oxopyrrolidin-1-yl)benzyloxy]-6,7-dihydro-5H-benzo[5,6][1,4]diazepino[7,1-a]indole-10-carboxylic acid dihydrochloride], the pIC50 is more than 7.00.
Same read-out and setting: the result for `CS(=O)(=O)c1ccc(N2CCOCC2)c(COc2ccc3c(c2)NCCn2c-3c(C3CCCCC3)c3ccc(C(=O)O)cc32)c1` [Example 1-101, 13-cyclohexyl-3-[5-methanesulfonyl-2-(morpholin-4-yl)benzyloxy]-6,7-dihydro-5H-benzo[5,6][1,4]diazepino[7,1-a]indole-10-carboxylic acid dihydrochloride] reads more than 7.00; that for `CCN1CCN(C(=O)CN2CCn3c(c(C4CCCCC4)c4ccc(C(=O)NC(C)=O)cc43)-c3ccccc32)CC1` [Example 1-102, N-acetyl-13-cyclohexyl-5-[2-(4-ethylpiperazin-1-yl)-2-oxoethyl]-6,7-dihydro-5H-benzo[5,6][1,4]diazepino[7,1-a]indole-10-carboxamide], more than 7.00.
